Consider 22 compounds from PubChem BioAssay AID330 (DTP/NCI, 2004).

Where “and” joins values, the source holds several entries; their conditions need not be identical. Equal entries are not always repeated. Toxic doses and inconclusive results are not listed.

The test relates to P388 leukemia ip, CD2F1 mice, survival T/C. Briefly: NCI In Vivo Anticancer Drug Screen. Data for tumor model P388 Leukemia (intraperitoneal) in CD2F1 (CDF1) mice. The settings on record: endpoint: median survival time, higher = longer survival. The procedure, abridged:
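Mice carrying the transplanted tumor received test compound or vehicle. Survival was recorded in each group, and the value is the treated-group measurement divided by that of the vehicle-treated control group.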

[1] abbreviates: dose: 100.0 mg/kg/injection, schedule: Q01DX009 (ip), vehicle: saline.
Setting [2] is: dose: 200.0 mg/kg/injection, schedule: Q01DX009 (ip), vehicle: saline.
Where [3] appears, read: dose: 50.0 mg/kg/injection, schedule: Q01DX009 (ip), vehicle: saline.
Where [4] appears, read: dose: 50.0 mg/kg/injection, schedule: Q01DX009 (ip), vehicle: saline with Tween-80.
The mark [5] stands for this setting: dose: 50.0 mg/kg/injection, schedule: Q01DX009 (ip), vehicle: Klucel (hydroxypropylcellulose) (HPC).
The mark [6] stands for this setting: dose: 100.0 mg/kg/injection, schedule: Q01DX009 (ip), vehicle: Klucel (hydroxypropylcellulose) (HPC).
[7] abbreviates: dose: 100.0 mg/kg/injection, schedule: Q01DX009 (ip), vehicle: saline with Tween-80.
Where [8] appears, read: dose: 200.0 mg/kg/injection, schedule: Q01DX009 (ip), vehicle: saline with Tween-80.

Take `COC1OC(CO)C(O)C(NC(=O)N(C)N=O)C1O` (stereo not given): the T/C is, setting by setting: under setting [1], 169 % of control and 187 % of control; under setting [2], 218 % of control and 232 % of control; (dose: 400.0 mg/kg/injection, schedule: Q01DX009 (ip), vehicle: saline) 105 % of control and 117 % of control.
As for `O=S1(=O)C=C(c2ccc3ccccc3c2)C1`, the T/C runs as follows: (dose: 100.0 mg/kg/injection, schedule: Q01DX001 (ip), vehicle: saline with Tween-80) 105 % of control; (dose: 200.0 mg/kg/injection, schedule: Q01DX001 (ip), vehicle: saline with Tween-80) 100 % of control; (dose: 400.0 mg/kg/injection, schedule: Q01DX001 (ip), vehicle: saline with Tween-80) 96 % of control.
For the compound `Nc1ncnc2c1c(-c1ccc(Cl)cc1)cn2-c1ccc(I)cc1`, the T/C reads like this: (dose: 60.0 mg/kg/injection, schedule: Q01DX005 (ip), vehicle: saline with Tween-80) 100 % of control; (dose: 120.0 mg/kg/injection, schedule: Q01DX005 (ip), vehicle: saline with Tween-80) 102 % of control; (dose: 240.0 mg/kg/injection, schedule: Q01DX005 (ip), vehicle: saline with Tween-80) 88 % of control.
Consider `CC1(c2cccc[n+]2Cc2ccc(Cl)c3ccccc23)OCCO1`, for which the T/C is, setting by setting: (dose: 12.5 mg/kg/injection, schedule: Q01DX009 (ip), vehicle: saline) 101 % of control; (dose: 25.0 mg/kg/injection, schedule: Q01DX009 (ip), vehicle: saline) 101 % of control.
For `CC(C)N1CCOC1c1ccccc1` (stereo not given), the T/C runs as follows: (dose: 50.0 mg/kg/injection, schedule: Q04DX003 (ip), vehicle: saline sonified) 109 % of control; (dose: 100.0 mg/kg/injection, schedule: Q04DX003 (ip), vehicle: saline sonified) 118 % of control; (dose: 200.0 mg/kg/injection, schedule: Q04DX003 (ip), vehicle: saline sonified) 109 % of control.
For the compound `CC(C)(C)C#CP(C#CC(C)(C)C)C#CC(C)(C)C`, the T/C was 108 % of control (dose: 12.5 mg/kg/injection, schedule: Q04DX003 (ip), vehicle: Klucel (hydroxypropylcellulose) (HPC)); 106 % of control (dose: 25.0 mg/kg/injection, schedule: Q04DX003 (ip), vehicle: Klucel (hydroxypropylcellulose) (HPC)); 111 % of control (dose: 50.0 mg/kg/injection, schedule: Q04DX003 (ip), vehicle: Klucel (hydroxypropylcellulose) (HPC)).
With `CN1C2CCC1C(CCl)C(O)C2` (stereo not given), the T/C is 92 % of control under setting [3], 88 % of control under setting [1] and 88 % of control under setting [2].
Turning to `CN(C)C1=CC(N(C)C)=NC12C(=N)N(C)C(=O)N(C)C2=O` (stereo not given), the T/C runs as follows: (dose: 50.0 mg/kg/injection, schedule: Q01DX005 (ip), vehicle: water) 104 % of control; (dose: 100.0 mg/kg/injection, schedule: Q01DX005 (ip), vehicle: water) 104 % of control; (dose: 200.0 mg/kg/injection, schedule: Q01DX005 (ip), vehicle: water) 108 % of control.
On to `N#Cc1ccc(N(O)C(=O)c2ccccc2)cc1`, for which the T/C by setting is: (dose: 12.5 mg/kg/injection, schedule: Q01DX009 (ip), vehicle: saline with Tween-80) 99 % of control; (dose: 25.0 mg/kg/injection, schedule: Q01DX009 (ip), vehicle: saline with Tween-80) 100 % of control; under setting [4], 99 % of control and 100 % of control.
For `O=C(O)c1cnc2c(C(F)(F)F)cccc2c1Nc1ccc2c(c1)OCO2`, the T/C was 92 % of control (dose: 7.5 mg/kg/injection, schedule: Q01DX005 (ip), vehicle: Klucel (hydroxypropylcellulose) (HPC)); 101 % of control (dose: 15.0 mg/kg/injection, schedule: Q01DX005 (ip), vehicle: Klucel (hydroxypropylcellulose) (HPC)); 105 % of control (dose: 30.0 mg/kg/injection, schedule: Q01DX005 (ip), vehicle: Klucel (hydroxypropylcellulose) (HPC)); 101 % of control (dose: 120.0 mg/kg/injection, schedule: Q01DX005 (ip), vehicle: Klucel (hydroxypropylcellulose) (HPC)); 96 % of control (dose: 240.0 mg/kg/injection, schedule: Q01DX005 (ip), vehicle: Klucel (hydroxypropylcellulose) (HPC)).
Regarding `O=C(O)C(Nc1ncnc2c1ncn2C1OC(CO)C(O)C1O)C(F)(F)C(=O)O` (stereo not given), the T/C runs as follows: (dose: 100.0 mg/kg/injection, schedule: Q04DX003 (ip), vehicle: saline) 97 % of control; (dose: 200.0 mg/kg/injection, schedule: Q04DX003 (ip), vehicle: saline) 100 % of control; (dose: 400.0 mg/kg/injection, schedule: Q04DX003 (ip), vehicle: saline) 99 % of control.
For `O=P(c1ccccc1)(c1ccccc1)c1ccccc1.O=P(c1ccccc1)(c1ccccc1)c1ccccc1.O=S(=O)(O)O.[Fe]`, the T/C by setting is: (dose: 100.0 mg/kg/injection, schedule: Q04DX003 (ip), vehicle: Klucel (hydroxypropylcellulose) (HPC)) 93 % of control; (dose: 200.0 mg/kg/injection, schedule: Q04DX003 (ip), vehicle: Klucel (hydroxypropylcellulose) (HPC)) 89 % of control.
As for `COC(=O)/C=C1\C(=O)OC(C)(C)C1C` (stereo not given), the T/C by setting is: under setting [5], 96 % of control; under setting [6], 98 % of control; (dose: 200.0 mg/kg/injection, schedule: Q01DX009 (ip), vehicle: Klucel (hydroxypropylcellulose) (HPC)) 103 % of control.
Consider `C=CCCCCn1c2ccccc2c2c(C)c3cnccc3c(C)c21`, for which the T/C was 100 % of control under setting [4], 115 % of control under setting [7] and 115 % of control under setting [8].
Turning to `CCCCCOP(=O)(N=[N+]=[N-])OCCCCC`, the T/C is 98 % of control (dose: 0.78 mg/kg/injection, schedule: Q01DX009 (ip), vehicle: saline with Tween-80) and 98 % of control (dose: 1.56 mg/kg/injection, schedule: Q01DX009 (ip), vehicle: saline with Tween-80).
`COC(=O)CCC(N)C(=O)NC(Cc1ccccc1)C(=O)NC(C)C(=O)NC1C(O)OC(CO)C(O)C1O` (stereo not given): the T/C is 99 % of control (dose: 60.0 mg/kg/injection, schedule: Q01DX005 (ip), vehicle: saline); 98 % of control (dose: 120.0 mg/kg/injection, schedule: Q01DX005 (ip), vehicle: saline); 99 % of control (dose: 240.0 mg/kg/injection, schedule: Q01DX005 (ip), vehicle: saline).
Regarding `CNC(=S)P(c1ccccc1)c1ccccc1`, the T/C (dose: 50.0 mg/kg/injection, schedule: Q01DX005 (ip), vehicle: Klucel (hydroxypropylcellulose) (HPC)) is 105 % of control; the T/C (dose: 100.0 mg/kg/injection, schedule: Q01DX005 (ip), vehicle: Klucel (hydroxypropylcellulose) (HPC)) is 96 % of control; the T/C (dose: 200.0 mg/kg/injection, schedule: Q01DX005 (ip), vehicle: Klucel (hydroxypropylcellulose) (HPC)) was 105 % of control.
Regarding `CCCCCCCCN(C)N=Nc1ccccc1C(=O)O`, the T/C is 105 % of control (dose: 12.5 mg/kg/injection, schedule: Q01DX009 (ip), vehicle: Klucel (hydroxypropylcellulose) (HPC)); 118 % of control (dose: 25.0 mg/kg/injection, schedule: Q01DX009 (ip), vehicle: Klucel (hydroxypropylcellulose) (HPC)); 115 % of control under setting [5]; 108 % of control under setting [6].
For `COc1cc(C2c3cc4c(cc3CCN2C)OCO4)cc(OC)c1OC` (stereo not given), the T/C runs as follows: (dose: 50.0 mg/kg/injection, schedule: Q01DX005 (ip), vehicle: saline with Tween-80) 106 % of control; (dose: 100.0 mg/kg/injection, schedule: Q01DX005 (ip), vehicle: saline with Tween-80) 94 % of control.
`CCC[CH2][GeH][CH2]CCC.CCC[CH2][Ge]([CH2]CCC)[CH2]CCC`: the T/C is 98 % of control under setting [3], 88 % of control under setting [1] and 98 % of control under setting [2].
As for `Clc1ccc(C2(c3ccncc3)OCCO2)cc1`, the T/C is, setting by setting: (dose: 75.0 mg/kg/injection, schedule: Q01DX001 (ip), vehicle: saline) 109 % of control; (dose: 150.0 mg/kg/injection, schedule: Q01DX001 (ip), vehicle: saline) 104 % of control; (dose: 300.0 mg/kg/injection, schedule: Q01DX001 (ip), vehicle: saline) 90 % of control.
In the case of `CC(C)(C)c1ccc(OS(=O)(=O)c2cccc([N+](=O)[O-])c2)cc1`, the T/C is 95 % of control under setting [7]; 100 % of control under setting [8]; 100 % of control (dose: 400.0 mg/kg/injection, schedule: Q01DX009 (ip), vehicle: saline with Tween-80).
